“Also recorded” adds a separate entry of the source.

Data set [1] concerns naïve CD4+ T cells. Kind of data set: In vitro Foxp3 induction assay: naïve CD4+ T cells co-cultured with DC, CD3 antibody, TGF-β, IL-2. It is filed as cell-based, mouse. To be noted: purified SCFA. How it is done:
For in vitro experiments, CD4+ T cells and CD11c+ dendritic cells were enriched using mouse CD4 (L3T4, Invitrogen) and mouse CD11c (N418, BioLegend) antibodies, respectively, that were biotinylated for use with streptavidin-Dynabeads (Invitrogen). Enriched cells were then sorted on a FACSAria II cell sorter (BD Biosciences) for in vitro assays. Intracellular staining for IL-17, IFN-γ, IL-4, IL-13 and Foxp3 was performed using the Foxp3 staining kit (eBiosciences). Cytokine staining was performed after re-stimulation with CD3 antibody and CD28 antibody (5 μg ml-1 each) in the presence of Golgi-plug (BD Biosciences) for 5 hours. DC were expanded in vivo by subcutaneous injection of B16 melanoma cells secreting FLT3-ligand into the left hind flank of mice as indicated. Once tumors were visible, spleens from injected animals were dissociated in RPMI 1640 medium containing 1.67 U mL-1 liberase TL (Roche) and 50 μg mL-1 DNAse I (Roche) for 20 min at 37° C. with shaking EDTA was then added at a final concentration of 5 mM to stop digestion and the resulting homogenate was processed for CD11c+ cell isolation using the MACS mouse CD11c (N418) purification kit (Miltenyi Biotec). In vitro Foxp3 induction assays were performed by co-culturing DC with 5.5×10^4 CD4+CD44loCD62LhiCD25-naïve T cells in the presence of 1 μg ml-1 of CD3 antibody, 1 ng mL-1 TGF-β, and 100 U ml-1 IL-2, in 96-well flat-bottom plates for 4 d. For Foxp3 induction in the presence of butyrate- or TSA-pretreated DC, TGF-β was used at 0.1 ng mL-1 final concentration. In vitro induction assays in the absence of DC were performed by incubating 5.5×10^4 naïve CD4+ T cells with 1 ng mL-1 TGF-β, 100 U ml-1 IL-2, and a 1:1 cell-to-bead ratio of CD3/CD28 T activator Dynabeads (Invitrogen). […] Proliferation of T cells was assessed by [3H]-thymidine incorporation during the final 8 h of culture.

A further data set concerns the target T1, GPR43 (Mus musculus, UniProt Q8VCK6).
T1 sequence (Q8VCK6 1-330): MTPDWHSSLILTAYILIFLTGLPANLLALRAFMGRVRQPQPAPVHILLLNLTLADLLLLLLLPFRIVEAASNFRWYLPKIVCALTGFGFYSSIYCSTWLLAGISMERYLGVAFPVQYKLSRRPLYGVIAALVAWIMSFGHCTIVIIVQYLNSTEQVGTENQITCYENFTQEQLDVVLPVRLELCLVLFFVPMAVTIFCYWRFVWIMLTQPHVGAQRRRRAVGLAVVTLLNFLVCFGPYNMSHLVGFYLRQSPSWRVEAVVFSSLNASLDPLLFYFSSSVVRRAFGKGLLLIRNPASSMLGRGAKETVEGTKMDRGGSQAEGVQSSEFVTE
To be noted: Smith et al. Science 2013; cited from earlier work.

A further data set has as its system Flt3L-elicited DC. Kind of data set: Foxp3 induction by DC pre-treated with SCFA or TSA for 6 h, washed, co-cultured with naïve CD4+ T cells. It is filed as cell-based, mouse. The note with it: DC pre-treated 6 h, then agent removed. On the procedure:
DC were expanded in vivo by subcutaneous injection of B16 melanoma cells secreting FLT3-ligand into the left hind flank of mice as indicated. Once tumors were visible, spleens from injected animals were dissociated in RPMI 1640 medium containing 1.67 U mL-1 liberase TL (Roche) and 50 μg mL-1 DNAse I (Roche) for 20 min at 37° C. with shaking EDTA was then added at a final concentration of 5 mM to stop digestion and the resulting homogenate was processed for CD11c+ cell isolation using the MACS mouse CD11c (N418) purification kit (Miltenyi Biotec).
(§1) In vitro Foxp3 induction assays were performed by co-culturing DC with 5.5×10^4 CD4+CD44loCD62LhiCD25-naïve T cells in the presence of 1 μg ml-1 of CD3 antibody, 1 ng mL-1 TGF-β, and 100 U ml-1 IL-2, in 96-well flat-bottom plates for 4 d. For Foxp3 induction in the presence of butyrate- or TSA-pretreated DC, TGF-β was used at 0.1 ng mL-1 final concentration. In vitro induction assays in the absence of DC were performed by incubating 5.5×10^4 naïve CD4+ T cells with 1 ng mL-1 TGF-β, 100 U ml-1 IL-2, and a 1:1 cell-to-bead ratio of CD3/CD28 T activator Dynabeads (Invitrogen). For in vitro suppression assays, 4×10^4 naïve CD4+ T cells were FACS-sorted from B6 mice and cultured with graded numbers of CD4+Foxp3+ Treg cells FACS-sorted from Foxp3GFP mice treated with antibiotics and with or without butyrate, in the presence of […] irradiated T cell-depleted splenocytes and 1 μg ml-1 CD3 antibody in a 96-well round-bottom plate for 80 h. Proliferation of T cells was assessed by [3H]-thymidine incorporation during the final 8 h of culture.

A further data set relates to Foxp3+ Treg cells. Kind of data set: SCFA in drinking water to AVNM-treated mice, flow cytometric analysis of Foxp3+ Treg cell subsets. The note with it: for colonic Treg cells (accumulation of Treg cells in the colon): SCFA in drinking water; for Treg cell subsets in the spleen: drinking water, AVNM-treated CNS1-sufficient mice. It is filed as in vivo. An excerpt:
Fox[…] (CNS1 knockout), Foxp3GFP, Foxp3Thy1.1 and Gpr109a-/- mice were used in the experiments as previously described (Zheng. Y. et al. Nature, 2010, 463, 808-12; Fontenot, J. D. et al. Immunity, 2005, 22, 329-41; Kim, J. M., et al. Nat Immunol, 2007, 8, 191-7). Male C57BL/6 (B6) mice were purchased from the Jackson Laboratory and groups of 5 co-housed mice were randomly assigned to treatment vs. control groups after confirmation that age and weight were in accordance between groups. Male mice were used for all experiments. All strains were maintained in the Sloan-Kettering Institute animal facility in accordance with institutional guidelines. Mice were sacrificed by CO2 asphyxiation then blindly processed for tissue harvest thereafter. For antibiotic treatment, mice at 5-6 weeks of age were treated with 1 g L-1 metronidazole (Sigma-Aldrich), 0.5 g L-1 vancomycin (Hospira), 1 g L-1 ampicillin (Sigma-Aldrich) and 1 g L-1 kanamycin (Fisher Scientific) dissolved in drinking water. […] Butyrate was administered to mice after prior treatment with antibiotics for at least 1 week. For in vitro experiments, CD4+ T cells and CD11c+ dendritic cells were enriched using mouse CD4 (L3T4, Invitrogen) and mouse CD11c (N418, BioLegend) antibodies, respectively, that were biotinylated for use with streptavidin-Dynabeads (Invitrogen). Enriched cells were then sorted on a FACSAria II cell sorter (BD Biosciences) for in vitro assays. Intracellular staining for IL-17, IFN-γ, IL-4, IL-13 and Foxp3 was performed using the Foxp3 staining kit (eBiosciences). Cytokine staining was performed after re-stimulation with CD3 antibody and CD28 antibody (5 μg ml-1 each) in the presence of Golgi-plug (BD Biosciences) for 5 hours.

The subject of data set [2] is naïve CD4+ T cells. Kind of data set: In vitro Foxp3 induction in the absence of DC (CD3/CD28 antibody-coated beads, TGF-β). It is filed as cell-based, mouse. To be noted: purified naive CD4+ T cells, CD3 and CD28 antibody-coated beads. On the procedure: as §1
Data set [3] is described as follows: LC-MS analysis of butyrate in serum. It is filed as in vivo. To be noted: AVNM-treated mice given butyrate in drinking water vs unperturbed SPF mice. An excerpt: Foxp3ΔCNS1 (CNS1 knockout), Foxp3GFP, Foxp3Thy1.1 and Gpr109a−/− mice were used in the experiments as previously described (Zheng. Y. et al. Nature, 2010, 463, 808-12; Fontenot, J. D. et al. Immunity, 2005, 22, 329-41; Kim, J. M., et al. Nat Immunol, 2007, 8, 191-7). Male C57BL/6 (B6) mice were purchased from the Jackson Laboratory and groups of 5 co-housed mice were randomly assigned to treatment vs. control groups after confirmation that age and weight were in accordance between groups. Male mice were used for all experiments. All strains were maintained in the Sloan-Kettering Institute animal facility in accordance with institutional guidelines. Mice were sacrificed by CO2 asphyxiation then blindly processed for tissue harvest thereafter. For antibiotic treatment, mice at 5-6 weeks of age were treated with 1 g L-1 metronidazole (Sigma-Aldrich), 0.5 g L-1 vancomycin (Hospira), 1 g L-1 ampicillin (Sigma-Aldrich) and 1 g L-1 kanamycin (Fisher Scientific) dissolved in drinking water. For butyrate, acetate and propionate administration, each SCFA was added to drinking water containing antibiotics (as described above) at a final concentration of 36 mM and pH-adjusted, if needed, to match that of antibiotic-only water. Butyrate was administered to mice after prior treatment with antibiotics for at least 1 week. […]

In data set [4] the test system is Foxp3 promoter and CNS1 enhancer. The experiment in a line: H3K27Ac ChIP-qPCR at the Foxp3 locus. It is filed as cell-based, mouse. The note with it: 3 days, CD3/CD28 beads and TGF-β. How it is done:
H3K27Ac ChIP-qPCR was performed as previously described (Samstein, R. M. et al. Cell, 2012, 151, 153-66). Briefly, fixed cells were lysed and mono- and poly-nucleosomes were obtained by partial digestion with micrococcal nuclease (12,000 U mL-1) in 1 min at 37° C. EDTA was added to a final concentration of 50 mM to stop the reaction, and digested nuclei were resuspended in nuclear lysis buffer with 1% SDS. After sonication, 1 ug H3K27Ac-specific antibody (Abcam, ab4729) was used to precipitate H3K27Ac-bound chromatin. Washing and de-crosslinking was performed as described (Samstein, R. M. et al. Cell, 2012, 151, 153-66).

Data set [5] can be described thus: Butyrate levels in fecal pellets after butyrate in drinking water. It is filed as in vivo. The note with it: AVNM-treated mice given butyrate via drinking water. On the procedure: Stool samples were collected directly into sterile tubes from live mice and snap-frozen before preparation of material for SCFA quantification by HPLC or LC-MS (see corresponding section for further sample processing).
HPLC analysis was performed for analysis of derivatized stool extracts as previously described (Torii, T. et al. Ann. Clin. Biochem, 2010, 47, 447-452). Briefly, flash-frozen stool samples were extracted with 70% ethanol and brought to a final concentration of 0.1 μg μL-1. Debris was removed by centrifugation and 300 μL of supernatant was transferred to a new tube and combined with 50 μL of internal standard (2-ethylbutyric acid, 200 mM in 50% aqueous methanol), 300 μL of dehydrated pyridine 3% v/v (Wako) in ethanol, 300 μL of 250 mM N-(3-dimethlaminopropyl)-N′-ethylcarbodiimide hydrochloride (Sigma-Aldrich) in ethanol, and 300 μL of 20 mM 2-nitrophenylhydrazine hydrochloride (Tokyo Chemical) in ethanol. Samples were incubated at 60° C. for 20 min and 200 μL of potassium hydroxide 15% w/v dissolved 80/20 in methanol was added to stop the derivatization reaction. […] Derivatized SCFA were resuspended in 100 μL of mobile phase (below) and 20 μL was chromatographed on a Shimadzu HPLC system equipped with a Vydac 2.1×30 mm 300 A C18 column run at 200 μL min-1 in methanol/acetonitrile/TFA (30%/16%/0.1% v/v) and monitored for absorbance at 400 nm.

For data set [6], the system named is Flt3L-elicited CD11c+ dendritic cells. Kind of data set: DC viability by live/dead staining and flow cytometry. It is filed as cell-based, mouse. To be noted: butyrate pretreatment 6 h.

With `CC(=O)O` [acetate], the “TGF-β-dependent generation of Foxp3+ cells in vitro” value (from here on “TGF-β-dependent generation”) in the data set with naïve CD4+ T cells [1] is listed as “not”. Further, the “accumulation of Treg cells in the colon by activating GPR43” value on GPR43 is on record as “promote accumulation”. Moreover, the “ability of pre-treated DCs to induce Foxp3 expression in naïve CD4+ T cells” value in the data set with Flt3L-elicited DC was “not”. Besides, the “colonic Treg cells (accumulation of Treg cells in the colon)” value in the data set on Foxp3+ Treg cells (AVNM-treated mice) is given as “promoted accumulation”. The “Treg cell subsets in the spleen” value in the data set on Foxp3+ Treg cells is listed as “did not increase”.

With `CCCC(=O)O` [butyrate], the “increase in numbers of Foxp3+ cells in DC-free cultures” value in the data set on naïve CD4+ T cells [2] is under 1.5 fold. Further, in [3], the butyrate serum levels result was “comparable to those found in unperturbed SPF mice”. In [4] (Foxp3+ cells), the “increase in H3K27-Ac occupancy” value is listed as about 30%. Further, in data set [4] (Foxp3− cells), the “increase in H3K27-Ac at the Foxp3 promoter and CNS1 enhancer” value stood at 3 fold. For the same molecule, the “levels of butyrate in fecal pellets” value in data set [5] was “not reconstituted”. The non-lymphoid tissue histology result in the data set with Foxp3+ Treg cells (butyrate in drinking water, AVNM-treated mice) was “remained unchanged”. Also, the DC viability result in data set [6] is given as “no detrimental effect; also recorded: maintain”.

For the molecule `CC(C)CC(=O)O` [isovalerate], the “TGF-β-dependent generation” value in the data set with naïve CD4+ T cells [1] is “augmented”.

For the molecule `CCC(=O)O` [propionate], the “TGF-β-dependent generation” value in the data set with naïve CD4+ T cells [1] is recorded as “augmented”. For the same molecule, on GPR43, the “accumulation of Treg cells in the colon by activating GPR43” value is reported as “promote accumulation”. Moreover, the “ability of pre-treated DCs to induce Foxp3 expression in naïve CD4+ T cells” value with Flt3L-elicited DC is listed as “to a lesser extent”. Also, the “colonic Treg cells (accumulation of Treg cells in the colon)” value in the data set on Foxp3+ Treg cells (AVNM-treated mice) was “promoted accumulation”. For the same molecule, the “Treg cell subsets in the spleen” value in the data set with Foxp3+ Treg cells is recorded as “increased”.

Values taken from patent publication US20160271086A1, “METHODS AND COMPOSITIONS FOR INDUCING REGULATORY T-CELL GENERATION” (SLOAN-KETTERING INSTITUTE FOR CANCER RESEARCH, priority 2013, published 2016).
